From patent US11999727B2 (Tango Therapeutics, Inc., priority 2020, dated 2024)

Tests used:
[1] = system: MTAP-null SW1573 cancer cell line; test: 7-day viability assay, combination with an exemplar MTAP-null-selective PRMT5 inhibitor, SW1573; assay type: cell-based; conditions: in combination with an exemplar MTAP-null-selective PRMT5 inhibitor
Text: FIG. 3. Combination of AG-270, a MAT2A inhibitor effect is synergistic according to the HSA model, where the synergy score quantifies the excess of the highest single compound response

[2] = system: MTAP-null SW1573 cancer cell line; test: Combination viability assay (CellTiter-Glo, 7 days), SW1573 MTAP-deleted cells; assay type: cell-based; conditions: 7-day viability assay, combination partner: exemplar MTAPnull-selective PRMT5 inhibitor
Protocol: A SW1573 MTAP-isogenic cell line pair was generated by either reconstituting MTAP gene expression, or by introducing an empty control vector, in the MTAP-deleted SW1573 parental cell line. The cell lines were maintained in DMEM+10% FBS in a humidified, 5% CO2 tissue culture incubator. All test compounds are maintained as 10 mM DMSO stocks.
On Day 0, MTAP-intact and MTAP-deleted cells are seeded in a 384-well plate, and incubated in a humidified, 5% CO2 tissue culture incubator for 16-24 hours. On Day 1, the test compounds are dispensed to wells at defined concentrations (n=2), and the volume of DMSO is normalized to highest class volume. The compound-treated plates are incubated for 7 days in a humidified, 5% CO2 tissue culture incubator.
On Day 7, the plates are removed from the tissue culture incubator and allowed to equilibrate to room temperature. Relative viability is assessed by addition of CellTiter-Glo reagent, and data are plotted as % of DMSO control for each compound in each cell line, with a 4-parameter fit non-linear regression model (GraphPad Prism). Synergy is determined according to the HSA model by the Combenefit software package (Version 2.021).

PRMT5 [3] = target: T1, PRMT5 (Homo sapiens, UniProt O14744); test: PRMT5 biochemical IC50 assay with SAM as cofactor; conditions: PRMT5, SAM as cofactor; read-out: SAM IC50
T1 construct: purchased Viva (custom protein)
T1 sequence (O14744 whole entry): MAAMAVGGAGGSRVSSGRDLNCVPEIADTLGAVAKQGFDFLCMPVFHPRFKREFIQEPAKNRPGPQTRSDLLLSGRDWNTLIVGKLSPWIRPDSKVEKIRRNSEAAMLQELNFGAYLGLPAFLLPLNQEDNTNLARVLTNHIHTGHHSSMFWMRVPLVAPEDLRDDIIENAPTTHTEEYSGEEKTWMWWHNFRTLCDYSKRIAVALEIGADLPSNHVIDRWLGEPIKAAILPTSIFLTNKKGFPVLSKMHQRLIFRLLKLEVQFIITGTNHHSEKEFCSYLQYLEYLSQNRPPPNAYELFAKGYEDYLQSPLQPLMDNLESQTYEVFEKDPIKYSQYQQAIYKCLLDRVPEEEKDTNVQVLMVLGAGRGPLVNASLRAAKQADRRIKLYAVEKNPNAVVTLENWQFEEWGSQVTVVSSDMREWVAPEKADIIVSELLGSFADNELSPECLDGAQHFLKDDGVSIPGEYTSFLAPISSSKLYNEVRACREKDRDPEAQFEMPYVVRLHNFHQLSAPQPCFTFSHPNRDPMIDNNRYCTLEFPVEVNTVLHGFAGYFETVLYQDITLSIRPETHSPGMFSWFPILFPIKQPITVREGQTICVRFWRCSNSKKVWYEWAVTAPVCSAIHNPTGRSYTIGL
T1 sequence (Q9BQA1 whole entry partner): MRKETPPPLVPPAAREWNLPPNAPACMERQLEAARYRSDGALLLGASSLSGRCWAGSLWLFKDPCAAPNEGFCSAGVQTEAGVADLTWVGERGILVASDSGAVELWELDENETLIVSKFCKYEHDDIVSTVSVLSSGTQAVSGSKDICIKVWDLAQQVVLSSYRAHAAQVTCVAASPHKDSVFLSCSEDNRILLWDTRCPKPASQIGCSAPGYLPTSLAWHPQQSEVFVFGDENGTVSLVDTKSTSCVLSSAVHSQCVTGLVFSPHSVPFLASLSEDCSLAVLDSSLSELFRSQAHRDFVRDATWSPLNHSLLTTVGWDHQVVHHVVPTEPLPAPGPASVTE

PRMT5 [4] = target: T1, PRMT5; test: PRMT5 biochemical IC50 assay with no cofactor; conditions: PRMT5, no cofactor; read-out: No Cofactor/rel IC50
Text: Table 1 indicates IC50 values (μM) against PRMT5 for exemplary compounds in the presence of SAM as cofactor, with no cofactor, and with MTA as cofactor, respectively (columns 4-6). […] Ki values can be calculated from the IC50 values as described in the Examples section. As detailed in the Examples section, for the assay performed in the presence of SAM, IC50=Ki×1.5 (Ki=IC50/1.5).

PRMT5 [5] = target: T1, PRMT5; test: PRMT5 biochemical IC50 assay with MTA as cofactor; conditions: PRMT5, MTA as cofactor; read-out: MTA IC50
[6] = system: HAP1 MTAP-intact cell line; test: SDMA in-cell western assay, HAP1 MTAP-intact; assay type: cell-based; conditions: Homo sapiens, HAP1, SDMA in-cell western, HAP1 MTAP-intact; read-out: MTAP HAP1 intact IC50
Procedure, shortened: (§1)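 Compounds were tested in HAP1 cells differing only in MTAP status (endogenous expression versus null). Cellular SDMA levels were then measured by in-cell western, giving an IC50 in each background.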

[7] = system: HAP1 MTAP-deleted cell line; test: SDMA in-cell western assay, HAP1 MTAP-deleted; assay type: cell-based; conditions: for IC50: Homo sapiens, HAP1, SDMA in-cell western, HAP1 MTAP-deleted, read-out: HAP1 MTAP deleted IC50; for MTAP intact/deleted ratio: SDMA in-cell western
Procedure, shortened: as §1

[8] = system: HAP1 MTAP-deleted cell line; test: Viability assay, MTAP-deleted cell line; assay type: cell-based; conditions: Homo sapiens, HAP1, viability assay, read-out: HAP1 MTAP deleted viability
Text: Table 1 additionally indicates IC50 values in a viability assay for the MTAP-deleted cell line (column 10), indicating the effect of treatment with compound on cell survival.

[9] = IC50 ratio HAP1 MTAP-intact / HAP1 MTAP-deleted

Row | Compound | Effect of the combination on cellular viability [1] | cellular viability, combination with an exemplar MTAP-null-selective PRMT5 inhibitor [2] | IC50 (PRMT5 [3]) | IC50 (PRMT5 [4]) | IC50 (PRMT5 [5]) | IC50 [6] | IC50 [7] | MTAP intact/deleted ratio ([7]; IC50 ratio HAP1 MTAP-intact vs HAP1 MTAP-deleted) | IC50 ([8]; MTAP-deleted cell line) | MTAP intact/deleted ratio [7, 9] | IC50 ([8]; HAP1 MTAP-deleted)
1 | O=C(Nc1ccc2[nH]nc(-c3ccncc3)c2c1)[C@@H]1CCN(CC(=O)N2CCN(c3ccc(-c4ncccn4)cc3)CC2)C1 [SCH772984] | enhanced cellular viability defect | enhanced cellular viability defects |  |  |  |  |  |  |  |  | 
2 | C=CC(=O)N1CCN(c2nc(=O)n(-c3c(C)ccnc3C(C)C)c3nc(-c4c(O)cccc4F)c(F)cc23)[C@@H](C)C1 [AMG-510] | enhanced cellular viability defects | enhanced cellular viability defects |  |  |  |  |  |  |  |  | 
3 | CC(C)Nc1cc(-c2c[nH]c(C(=O)N[C@H](CO)c3cccc(Cl)c3)c2)c(Cl)cn1 [ulixertinib] | enhanced cellular viability defect | enhanced cellular viability defects |  |  |  |  |  |  |  |  | 
4 | COc1ncc(NC(=O)C(=O)N2C[C@@H](C)CC[C@@H]2c2ccc3sc(C4CC(C)(C)N(C)C(C)(C)C4)nc3c2)cc1C(N)=O (single isomer, unassigned) [Compound 1108] |  |  | < 0.05 µM | < 0.05 µM | < 0.05 µM | < 0.1 µM | < 0.1 µM | A (an IC50 ratio greater than or equal to 10 fold) | < 1 µM |  | 
5 | Cc1cc(NC(=O)C(=O)N2C[C@@H](C)CC[C@@H]2c2ccc3[nH]c(=O)ccc3c2)cnc1N (single isomer, unassigned) [Compound 762] |  |  | < 0.05 µM | < 0.05 µM | < 0.05 µM | < 0.1 µM | < 0.1 µM |  |  | B (an IC50 ratio greater than or equal to 3 fold but lower than 10 fold) | < 1 µM
6 | CCc1cc(NC(=O)C(=O)N2C[C@@H](C)CC[C@@H]2c2ccc(-c3cncs3)cc2)cnc1N (single isomer, unassigned) [Compound 827, N-(6-amino-5-ethylpyridin-3-yl)-2-(5-methyl-2-(4-(thiazol-5-yl)phenyl)piperidin-1-yl)-2-oxoacetamide] |  |  | > 0.5 µM | > 0.5 µM | 0.05 to 0.5 µM | > 1 µM | 0.1 to 1 µM |  |  | A (an IC50 ratio greater than or equal to 10 fold) | > 10 µM
